One data set addresses bovine liver SAHase. More on the design: method as in Porter and Boyd, 1992. To be noted: cited from earlier work.
The target of data set [1] is SAHase from Trypanosoma cruzi. More on the design: method as in Li Q.-S. et al., 2007. The settings on record: ref Li Q.-S. et al., 2007; cited from earlier work.
The next data set deals with SAHase from humans. More on the design: method as in Li Q.-S. et al., 2007. To be noted: human SAHase; ref Li Q.-S. et al., 2007; cited from earlier work.
For data set [2], the target named is T1, Bradyrhizobium elkanii SAHase (BeSAHase) (Bradyrhizobium elkanii, UniProt A0A087WNH6).
T1 construct: His-tag (N); made in house; host or cells: E. coli
T1 sequence (A0A087WNH6 1-473): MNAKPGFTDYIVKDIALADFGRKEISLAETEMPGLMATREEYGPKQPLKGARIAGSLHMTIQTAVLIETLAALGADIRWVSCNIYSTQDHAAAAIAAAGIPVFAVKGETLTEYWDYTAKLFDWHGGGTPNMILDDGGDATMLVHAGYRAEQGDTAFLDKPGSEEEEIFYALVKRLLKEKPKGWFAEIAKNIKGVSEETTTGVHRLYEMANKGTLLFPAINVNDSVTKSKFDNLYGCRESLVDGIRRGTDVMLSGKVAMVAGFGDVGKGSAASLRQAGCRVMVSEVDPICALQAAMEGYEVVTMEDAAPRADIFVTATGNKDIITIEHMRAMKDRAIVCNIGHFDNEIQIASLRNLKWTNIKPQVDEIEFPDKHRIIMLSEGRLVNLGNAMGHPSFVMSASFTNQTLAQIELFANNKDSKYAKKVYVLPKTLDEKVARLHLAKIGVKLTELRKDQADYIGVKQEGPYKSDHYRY
Description: Isothermal titration calorimetry (ITC). The settings on record: for KD: apo-BeSAHase titrated with cofactor, 25°C, pH 7; for binding to apo-BeSAHase: titration of apo-BeSAHase; for binding to holo-BeSAHase: titration of holo-BeSAHase. Type of data set: binding. How it is done: Interaction analyses by ITC were performed with an Affinity ITC microcalorimeter (Low Volume, 24 K Gold Cell; TA Instruments). Prior to measurements, protein was dialyzed into 20 mM MOPS buffer containing 150 mM NaCl. The buffer was adjusted to pH 7 at room temperature, but dialysis was carried out at 4°C. To ensure equal buffer conditions, ligands were dissolved and diluted in the same buffer that was used for the last step of protein dialysis. Measurements were carried out at a constant cell temperature of 25°C. The cell was equilibrated with 40–90 μM SAHase for at least 10 min before the first injection of the respective ligand. The volume of the injections was varied between 2 and 4 μL, depending on the experiment and ligand concentration. The spacing between injections was adjusted according to the time required to reach the binding equilibrium (usually 240–500 s). Ligand titration was continued until peak sizes remained constant, representing only the enthalpy of dilution. The latter was subtracted from the raw data using a mock titration of the ligand into buffer only. Data evaluation was performed with the NanoAnalyze software (v. 3.7.5; TA Instruments), using the model “independent set of multiple binding sites” ([Freire et al., 1990]) for KD determination.

The target of data set [3] is T1, Bradyrhizobium elkanii SAHase (BeSAHase). Description: Photometric DTNB kinetic assay in the hydrolytic direction (SAH hydrolysis). It counts as biochemical. How it is done:
Reactions were performed at room temperature in 100 μL sodium phosphate buffer (100 mM, pH 8), supplemented with 1 mM EDTA, 0.2 mM 5,5′-dithiobis(2-nitrobenzoic acid) (DTNB) and SAHase. In experiments with defined NAD^+ concentrations, apo-SAHase was pre-incubated with the respective amount of cofactor for at least 2 h, to ensure that the binding equilibrium was reached before initiation of the reaction. Enzyme concentrations were adjusted according to specific activity, to avoid exceeding maximum reaction rates (vmax) of 0.01 mM⋅min^-1. Higher reaction rates would lead to product inhibition, caused by the accumulation of Ado, in the time frame of the measurement. Reactions were initiated by addition of the substrate (SAH). The reaction rate was monitored photometrically, using DTNB to detect the formation of Hcy. Experiments were carried out in a double-beam UV-vis spectrophotometer (Specord 205, Analytik Jena). Initial reaction rates (v0) were calculated from the first 20–25 s of the reaction, based on the increase of extinction (ΔE) at 412 nm over time (Δt) in a quartz cuvette with a path length (d) of 1 cm, assuming an extinction coefficient (ε) of 14,150 L cm^-1 mol^-1 for the product: v0 = ΔE ⋅ ε412 nm–1 ⋅ d^-1 ⋅ Δt^-1. The assay was validated by comparison to data obtained with the coupled photometric assay described by [Kailing et al. (2017)]. The latter assay was not used in this study, since NCB 10 contributes to oxidation of the monitoring compound NADH in a non-enzymatic way, thereby compromising the reliability of the measurement.
Initial reaction rates were plotted against the concentration of inhibitor and a linear regression analysis was performed as described above for the HPLC assay. The inhibitory constant (Ki) was calculated from the following relation, where KM, [E] and [S] denote the Michaelis–Menten constant, concentration of enzyme and of substrate, respectively: IC50 = Ki ⋅ KM–1 ) + [E]0/2 ([Cha, 1975]). Characterization of the inhibition model was done by measuring Michaelis–Menten kinetics in the presence of varying inhibitor concentrations. KM and maximum reaction rate (vmax) values were obtained by non-linear Michaelis–Menten fitting using GraphPad Prism.
Kinetic-based binding studies to determine the half-maximum effective concentration (EC50) for NAD^+ were carried out with 330 nM SAHase, after pre-incubation with the respective amount of NAD^+, and constant substrate concentrations (0.2 mM SAH). Initial reaction rates were plotted against the NAD^+ concentration and a hyperbolic fit was calculated using GraphPad Prism. The EC50 was calculated as the NAD^+ concentration leading to half-maximum activation of BeSAHase.

The target is the same in data set [4]. Description: HPLC-based endpoint activity assay in the direction of SAH synthesis. Type of data set: biochemical. The procedure:
HPLC-based activity measurements in the direction of SAH synthesis were carried out as described by [Kailing et al. (2017)], with constant substrate concentrations (0.5 mM) of both Ado and Hcy. For the cofactor screenings, the assay was supplemented with 2 mM of the respective compound and reactions were initiated with ∼10 μg (700 nM final concentrations in assay) of apo- or holo-BeSAHase, respectively. One set of reactions was terminated after 30 min, the other after 17 h. […] Reactions were terminated after 30 min. Conversions were derived from HPLC chromatograms as described before ([Kailing et al., 2017]), plotted against the concentration of inhibitor and a linear regression analysis was performed with the GraphPad Prism software (v. 6.01). The IC50 was calculated as the concentration leading to half-maximum effect of the inhibitor.

For data set [5] the following is noted: physiological pH, cited from earlier work.
Where [6] appears, read: ref Porter and Boyd, 1992, read-out: KD (estimated).
[7] abbreviates: calculated from IC50, KM, enzyme and substrate concentration.

Molecules are shown by their SMILES. Where “and” joins values, the source holds several entries; their conditions need not be identical. Equal values may be shown once. Read-outs that look alike come from different tables or passages of the source.

A word on the Kd: it is the equilibrium constant for the complex coming apart. Consider `Nc1ncnc2c1ncn2C1OC(CO)C(=O)C1O` (stereo not shown) [3′-ketoadenosine], for which, on bovine liver SAHase (setting [6]), the equilibrium dissociation constant (Kd) was 0.0006 µM.
With `C=C1OC(n2cnc3c(N)ncnc32)C(O)C1=O` (stereo not shown) [4′,5′-dehydro-3′-ketoadenosine], the equilibrium dissociation constant (Kd) at bovine liver SAHase (setting [6]) was 0.0003 µM.
In the case of `NC(=O)C1=CN([C@@H]2O[C@H](COP(=O)(O)OP(=O)(O)OC[C@H]3O[C@@H](n4cnc5c(N)ncnc54)[C@H](O)[C@@H]3O)[C@@H](O)[C@H]2O)C=CC1` [NADH], the KD range entry (in data set [1]; at SAHase from humans) was “nanomolar” throughout. The KD entry in data set [2] is “low micromolar range”.
On to `Nc1ncnc2c1ncn2[C@@H]1O[C@H](CO)[C@@H](O)[C@H]1O` [Ado, adenosine], for which the Kd on bovine liver SAHase (ref Porter and Boyd, 1992, read-out: KD) was 9 µM.
A word on the EC50: it is the midpoint of the concentration-response curve. For the compound `NC(=O)c1ccc[n+]([C@@H]2O[C@H](COP(=O)([O-])OP(=O)(O)OC[C@H]3O[C@@H](n4cnc5c(N)ncnc54)[C@H](O)[C@@H]3O)[C@@H](O)[C@H]2O)c1` [NAD^+, nicotinamide adenine dinucleotide, reference compound], the concentration giving a half-maximal response (EC50) in data set [3] (330 nM apo-SAHase pre-incubated with NAD+, 0.2 mM SAH, hyperbolic fit, read-out: EC50 (half-maximum activation of BeSAHase)) is ~10 µM and 11.2 µM. Further, the “reconstitution of activity of apo-SAHase” value in data set [4] (apo-BeSAHase, 2 mM compound, 0.5 mM Ado and Hcy, 30 min and 17 h) is “recovered highly active enzyme”. Also, in data set [4] (apo-BeSAHase, HPLC-based assay conditions), the “time to full substrate conversion after re-supplementation of apo-SAHase” value was “less than 30 min”. For the same compound, in data set [5] (NAD+/NADH, ref Burton and Wilson, 1953), the redox potential was -320 mV. In data set [2], the KD result was “low micromolar range”.
The IC50 is the concentration that gives 50% inhibition. Lower therefore signals greater potency. A word on the Ki: it is the dissociation constant of the complex between target and ligand, obtained from inhibition or displacement. One may read the inhibition as the share of the control response that was lost under treatment. In the case of `N#Cc1ccc[n+](Cc2ccccc2)c1` [NCB 10], in data set [3] (285 nM NAD+-saturated BeSAHase, 0.2 mM SAH, linear regression), the IC50 was ~14000 µM and 14400 µM. The inhibition mechanism entry in data set [3] (Michaelis-Menten kinetics with varying inhibitor concentrations) is listed as “non-competitive”. In addition, in data set [3] (setting [7]), the Ki is around 2000 µM and the “Ki,hydrolysis” value is on record as “millimolar range”. Besides, the IC50 in data set [4] (100 nM NAD+-saturated SAHase, 0.5 mM Ado and Hcy, 30 min, linear regression) was ~1400 µM and 1440 µM. Besides, the inhibition at 2000 µM in data set [4] (holo-SAHase in the presence of excess NAD+, 2 mM compound, read-out: inhibition of substrate conversion) was around 75%. The redox potential in data set [5] (10ox/10red, ref Ostovic et al., 1985) was -220 mV. In data set [2], the “binding to apo-BeSAHase” value is reported as “small binding enthalpies” and the “binding to holo-BeSAHase” value is “small binding enthalpies”. Moreover, in data set [2] (listed as 10), the “binding to apo-BeSAHase” value is “Neither titration of holo-, nor of apo-SAHase gave any hint of a binding event” and the “binding to holo-BeSAHase” value is recorded as “Neither titration of holo-, nor of apo-SAHase gave any hint of a binding event”.

Source of the values: paper PMC5871694, “S-Adenosyl-L-Homocysteine Hydrolase Inhibition by a Synthetic Nicotinamide Cofactor Biomimetic” (Frontiers in Microbiology, 2018).
